From the supplement of paper PMC8882468

What was measured:
Assay in all cases: CTG-3D luminescence at 96 h relative to day-0 seeding control (ratio to day 0); higher = more growth / less cytotoxicity; PDxO 3D drug screen, 96 h, CTG-3D normalised to day-0 seeding control.
HCI-001 = tested on: HCI-001 (organoid from a triple-negative breast cancer xenograft)
HCI-002 = tested on: HCI-002 (organoid from a triple-negative breast cancer xenograft)
HCI-003.E2 = tested on: HCI-003.E2 (organoid from an ER-positive breast cancer xenograft)
HCI-019 = tested on: HCI-019 (organoid from a triple-negative breast cancer xenograft)
HCI-024 = tested on: HCI-024 (organoid from a breast cancer xenograft)

NC1(C(=O)N[C@@H](CCO)c2ccc(Cl)cc2)CCN(c2nc[nH]c3nccc2-3)CC1 [capivasertib]
CTG-3D luminescence at 96 h
Settings	12.5 pM	0.00025 µM	0.005 µM	0.1 µM	1 µM	10 µM	100 µM	625 fM
HCI-001, days in culture: 240	1.55	0.986	1.1	0.601	0.604	0.407	0.382	1.02
HCI-001, days in culture: 260	2.26	1.47	1.9	1.32	0.652	0.532	0.449	1.71
HCI-001, days in culture: 269	1.69	1.5	1.82	1.34	0.734	0.758	0.593	1.71
HCI-001, days in culture: 327	1.71	1.3	1.7	1.35	0.84	0.552	0.71	1.81
HCI-001, days in culture: 346	1.49	1.36	1.35	1	0.937	0.678	0.809	1.33
HCI-001, days in culture: 364	1.6	1.21	1.21	0.928	0.847	0.605	0.375	1.47
HCI-002, days in culture: 62	2.82	2.61	2.83	2.56	2.34	2.26	0.503	2.99
HCI-002, days in culture: 82	2.73	2.76	1.95	2.52	1.92	1.51	0.418	2.8
HCI-002, days in culture: 91	4.24	3.84	3.7	3.73	2.94	3.16	1.6	4
HCI-002, days in culture: 191	2.54	2.72	1.88	2.57	2.45	1.75	0.435	2.31
HCI-002, days in culture: 209	2.44	2.32	2.31	1.92	1.96	1.45	0.402	2.39
HCI-002, days in culture: 227	6.02	6.01	6.13	6.73	5.16	4.63	0.534	6.21
HCI-019, days in culture: 110	1.22	1.74	1.4	1.97	0.842	1.18	0.332	1.92
HCI-019, days in culture: 131	2.99	3.67	2.98	3.31	1.45	1.63	0.521	4.08
HCI-019, days in culture: 152	2.96	2.9	2.96	1.68	0.946	0.895	0.274	2.6
HCI-024, days in culture: 105	1.73	1.84	1.39	1.47	0.926	0.839	0.401	2.06
HCI-024, days in culture: 122	2.22	2.39	1.78	1.68	1.09	1.35	0.518	2.23
HCI-024, days in culture: 163	2.16	1.74	1.93	2.41	1.56	1.32	0.629	2.73

HCI-003.E2
Settings	CTG-3D luminescence at 96 h
12.5 pM	2.4
0.00025 µM	2.22
0.005 µM	2.03
0.1 µM	1.76
1 µM	0.832
10 µM	0.479
100 µM	0.0376
625 fM	2.12

O=C(O)C1(C(=O)O)CCC1.[NH2-].[NH2-].[Pt+2] [carboplatin]
CTG-3D luminescence at 96 h
Settings	12.5 pM	0.00025 µM	0.005 µM	0.1 µM	1 µM	10 µM	100 µM	625 fM
HCI-001, days in culture: 240	1.59	1.15	0.945	1.27	1.63	1.29	0.471	1.36
HCI-001, days in culture: 260	1.71	0.978	2.01	1.09	1.41	1.48	0.569	0.928
HCI-001, days in culture: 269	1.59	1.61	1.58	1.8	1.83	2.14	0.918	1.75
HCI-001, days in culture: 327	1.5	1.43	2.04	1.74	1.53	1.15	0.592	1.83
HCI-001, days in culture: 346	1.42	1.53	1.03	1.02	1.47	1.47	1.01	1.35
HCI-001, days in culture: 364	1.45	1.09	1.54	0.839	1.01	1.56	0.829	1.51
HCI-002, days in culture: 62	3.04	2.34	2.63	2.61	2.45	2.29	0.71	2.9
HCI-002, days in culture: 82	2.75	3.03	1.99	2.54	2.26	1.82	0.726	2.68
HCI-002, days in culture: 91	4.49	3.72	3.53	3.87	3.9	3.69	0.992	4.08
HCI-002, days in culture: 191	2.54	2.62	2.4	2.78	2.89	1.86	0.967	2.4
HCI-002, days in culture: 209	2.4	2.34	2.11	2.07	2.18	1.69	0.74	2.38
HCI-002, days in culture: 227	5.92	5.72	5.38	6.29	5.74	5.68	1.18	6.2
HCI-019, days in culture: 110	1.39	1.76	1.53	2.63	1.29	1.16	0.26	1.97
HCI-019, days in culture: 131	2.21	3.56	2.77	2.39	2.12	1.23	0.234	3.26
HCI-019, days in culture: 152	2.94	2.48	2.23	1.4	1.99	1.4	0.291	1.64
HCI-024, days in culture: 105	1.38	1.54	1.37	1.52	1.36	1.64	0.14	1.71
HCI-024, days in culture: 122	1.94	1.95	1.97	1.65	1.8	2.27	0.189	2.78
HCI-024, days in culture: 163	2.01	2.27	2.06	2.67	2.1	2.03	0.608	2.43

HCI-003.E2
Settings	CTG-3D luminescence at 96 h
12.5 pM	2.12
0.00025 µM	2.49
0.005 µM	2.22
0.1 µM	2.23
1 µM	2.32
10 µM	2.35
100 µM	1.65
625 fM	2.11

COc1cc2c(Oc3ccc4[nH]c(C)cc4c3F)ncnc2cc1OCCCN1CCCC1 [cediranib]
CTG-3D luminescence at 96 h
Settings	12.5 pM	0.00025 µM	0.005 µM	0.1 µM	1 µM	10 µM	100 µM	625 fM
HCI-001, days in culture: 240	1.68	1.12	1.16	0.837	1.93	0.491	0.00478	1.37
HCI-001, days in culture: 260	1.84	0.917	1.79	1.4	1.81	0.0612	0.00103	1.3
HCI-001, days in culture: 269	1.74	2.02	1.64	2.09	2.09	0.00899	-0.0128	1.63
HCI-001, days in culture: 327	1.52	1.34	1.78	1.71	1.48	0.433	0.00365	1.84
HCI-001, days in culture: 346	1.6	1.18	1.25	1.32	1.41	0.639	0.00677	1.33
HCI-001, days in culture: 364	1.33	1.06	1.55	1.18	1.23	0.264	0.00077	1.44
HCI-002, days in culture: 62	2.64	2.39	2.84	2.46	2.52	0.0315	-0.00243	2.92
HCI-002, days in culture: 82	2.68	2.82	2.11	2.52	2.64	0.0265	0.00109	3.14
HCI-002, days in culture: 91	4.4	3.53	3.54	4.14	3.86	0.0389	-0.00511	4.42
HCI-002, days in culture: 191	2.49	2.65	2.32	2.43	2.47	0.0249	0.000973	2.52
HCI-002, days in culture: 209	2.4	2.26	1.95	1.95	1.93	0.0194	-0.000945	2.14
HCI-002, days in culture: 227	5.77	5.66	5.43	6.23	4.99	-0.101	-0.211	5.65
HCI-019, days in culture: 110	1.88	1.82	1.98	2.39	1.07	0.1	-0.00352	2.01
HCI-019, days in culture: 131	2.89	3.08	3.29	3.43	1.59	0.0352	-0.00454	3.39
HCI-019, days in culture: 152	2.41	3.23	2.62	1.68	0.851	0.22	0.000827	2.04
HCI-024, days in culture: 105	1.09	1.54	1.4	1.6	1.26	0.0298	-0.000777	1.39
HCI-024, days in culture: 122	1.5	1.9	1.93	1.84	1.65	0.0558	-0.000119	2.28
HCI-024, days in culture: 163	2.12	2.16	1.81	2.23	1.92	0.416	0.00136	2.19

HCI-003.E2
Settings	CTG-3D luminescence at 96 h
12.5 pM	2.13
0.00025 µM	2.53
0.005 µM	2.12
0.1 µM	2.33
1 µM	1.95
10 µM	0.251
100 µM	0.0212
625 fM	2.18

C[C@@H]1COCCN1c1cc(C2([S@](C)(=N)=O)CC2)nc(-c2cc[nH]c3nccc2-3)n1 [ceralasertib]
CTG-3D luminescence at 96 h
Settings	12.5 pM	0.00025 µM	0.005 µM	0.1 µM	1 µM	10 µM	100 µM	625 fM
HCI-001, days in culture: 240	1.54	0.962	0.905	0.752	1.11	0.512	0.536	1.21
HCI-001, days in culture: 260	1.68	0.899	1.81	1.66	1.19	0.492	0.35	1.32
HCI-001, days in culture: 269	1.61	1.65	1.82	1.79	1.06	0.544	0.577	1.54
HCI-001, days in culture: 327	1.41	1.4	1.77	1.47	1.36	0.335	0.479	1.44
HCI-001, days in culture: 346	1.56	1.49	1.38	1.3	1.02	0.456	0.658	1.26
HCI-001, days in culture: 364	1.44	1.19	1.23	1.16	0.732	0.301	0.319	1.52
HCI-002, days in culture: 62	2.73	2.51	2.76	3.04	1.81	1.12	0.574	2.93
HCI-002, days in culture: 82	2.71	2.85	2.13	2.4	1.5	0.818	0.274	2.8
HCI-002, days in culture: 91	4.35	3.4	4.02	3.58	2.23	1.3	0.523	4.14
HCI-002, days in culture: 191	2.46	2.89	2.17	2.66	1.91	0.976	0.332	2.6
HCI-002, days in culture: 209	2.37	2.28	1.9	2	1.41	0.743	0.29	2.27
HCI-002, days in culture: 227	6.44	5.73	5.38	5.47	3.08	1.48	0.366	6.05
HCI-019, days in culture: 110	1.9	1.2	1.15	2	0.748	0.526	0.468	1.62
HCI-019, days in culture: 131	2.22	3.35	3.06	3.3	1.98	0.424	0.71	3.75
HCI-019, days in culture: 152	2.6	2.77	2.34	2.22	1.1	0.604	0.499	2.45
HCI-024, days in culture: 105	1.68	1.61	1.35	1.5	0.841	0.567	0.521	1.93
HCI-024, days in culture: 122	2.12	2.11	1.89	2	1.23	0.742	0.54	2.57
HCI-024, days in culture: 163	1.95	1.91	1.68	2.32	1.38	0.897	0.977	2.29

HCI-003.E2
Settings	CTG-3D luminescence at 96 h
12.5 pM	2.11
0.00025 µM	2.23
0.005 µM	2.12
0.1 µM	2.45
1 µM	1.51
10 µM	0.353
100 µM	0.0571
625 fM	2.11
